In PMC4050309, “Five New Guanacastane-Type Diterpenes from Cultures of the Fungus Psathyrella candolleana” (Natural Products and Bioprospecting, 2014):

What was measured:
[1] = target: T1, human 11β-HSD1 (11β-hydroxysteroid dehydrogenase) (Homo sapiens, UniProt P28845); assay: scintillation proximity assay, [3H]cortisone to [3H]cortisol, microsomes overexpressing […]β-HSD1; format: biochemical
T1 construct: gene HSD11B1; full-length cDNA, microsomal fraction of stably transfected HEK-293 cells

[2] = target: T2, mouse 11β-HSD1 (11β-hydroxysteroid dehydrogenase) (Mus musculus, UniProt P50172); assay: as above; format: biochemical
T2 construct: gene Hsd11b1; full-length cDNA, microsomal fraction of stably transfected HEK-293 cells
T2 sequence (P50172 whole entry): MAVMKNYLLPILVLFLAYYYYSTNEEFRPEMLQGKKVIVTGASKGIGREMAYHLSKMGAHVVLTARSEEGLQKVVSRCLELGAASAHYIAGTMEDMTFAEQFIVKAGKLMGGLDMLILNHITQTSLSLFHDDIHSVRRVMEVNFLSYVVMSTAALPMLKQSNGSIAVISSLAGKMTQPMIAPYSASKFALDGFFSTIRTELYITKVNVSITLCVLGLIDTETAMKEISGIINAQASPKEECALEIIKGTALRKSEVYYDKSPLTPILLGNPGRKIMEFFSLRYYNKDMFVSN

T1 sequence (P28845 whole entry): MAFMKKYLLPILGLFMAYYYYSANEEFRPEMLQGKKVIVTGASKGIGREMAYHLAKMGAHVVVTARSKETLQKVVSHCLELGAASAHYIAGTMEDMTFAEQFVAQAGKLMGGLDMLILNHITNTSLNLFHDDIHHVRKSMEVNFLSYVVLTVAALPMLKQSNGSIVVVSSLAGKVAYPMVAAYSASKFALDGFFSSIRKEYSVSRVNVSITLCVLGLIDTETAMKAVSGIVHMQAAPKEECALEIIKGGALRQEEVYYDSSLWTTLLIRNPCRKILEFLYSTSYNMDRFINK

IC50 [1] | IC50 [2] | SMILES
0.0042 µM | 0.0065 µM | CC1(C)[C@@H](O[C@H]2O[C@H](C(=O)O)[C@@H](O)[C@H](O)[C@H]2O[C@@H]2O[C@H](C(=O)O)[C@@H](O)[C@H](O)[C@H]2O)CC[C@]2(C)[C@H]3C(=O)C=C4[C@@H]5C[C@@](C)(C(=O)O)CC[C@]5(C)CC[C@@]4(C)[C@]3(C)CC[C@@H]12 [glycyrrhizinic acid]
6.2 µM | 13.9 µM | CC(C)C1=C(O)C(=O)C2=CC3=C(CO)C(=O)CC[C@@]3(C)CC[C@@]21C [compound 3, Guanacastepene R]
